Data set [1] has as its system association of Akt with IKK-β. Nature of the data set: Akt/IKK-β association (co-immunoprecipitation). To be noted: dose-dependent and time-dependent. In kind it is cell-based, human. As for the experimental part:
In brief, confluent HUVECs were incubated with or without MPTAG and were stimulated with TNF-α (10 ng/ml) for 15 mins. The cells were washed and lysed in Lysis buffer containing 50 mM HEPES, pH 7.6, 10% glycerol, 1 mM sodium orthovanadate, 100 mM NaCl, 1% NP-40, 1 mM EDTA and protease inhibitor cocktail and allowed to swell on ice for 45 mins. Following centrifugation at 13,000 rpm for 45 mins, the supernatants were collected as “total cell extracts” and stored at −70°C. Immunoprecipitation was performed as per the instructions of Protein G immunoprecipitation kit (Sigma Aldrich, USA). Endogenous IKK complexes were immunoprecipitated in the following reaction mixtures: 100–300 µg of total cell extracts were incubated with 2–4 µg anti-IKK-β or PKAα antibody in 100 µl 1× IP buffer. After incubation for 16 h at 4°C with constant shaking, 50 µl of activated protein G beads were added and the mixture was incubated under rotation for an additional 3 h at 4°C.
Nuclear and cytoplasmic extracts were fractionated on SDS-PAGE with equal amount of proteins per well and transferred onto PVDF membranes and those membranes were incubated with appropriate primary antibodies and treated with HRP conjugated secondary antibodies followed by detection with DAB-H2O2 system. β-tubulin, α-actin and Lamin B1 were used as loading controls. […]

In data set [2] the test system is NF-κB DNA-binding activity in HUVECs. Nature of the data set: NF-κB activation assay (EMSA) in nuclear extracts. In kind it is cell-based, human. As for the experimental part:
(§1) The endothelial cells were subjected to the indicated treatments followed by induction with TNF-α for indicated time points or 30 mins. The cells were then washed with PBS and dislodged using a cell scraper. The cytoplasmic and nuclear extracts were prepared as described previously, [46].
NF-κB activation in the nuclear extracts of human endothelial cells was assessed by electrophoretic mobility shift assay (EMSA) as described previously, [46]. For supershift experiment, nuclear extracts prepared from unstimulated and TNF-α-stimulated cells were incubated with antibodies against the p50 or p65 subunit of NF-κB or -α-tubulin for 15 mins at 37°C before the complex was analyzed by EMSA. Addition of equal amount of radioactive-labelled probe to all the samples was indicated by the similar intensity of the unincorporated probe observed towards the end of the gel.

Data set [3] in a line: Aqueous solubility of MPG derivatives. In kind it is physicochemical. As for the experimental part:
Stock solutions of MPG and its derivatives (Tables S1, S2, S3) were prepared either in dimethylsulphoxide (DMSO) or cell culture medium. MPG and its derivatives were diluted to working concentrations in cell culture medium.

Data set [4] has as its system NF-κBp65 subunit translocation in HUVECs. Nature of the data set: NF-κB p65 nuclear translocation (western blot, immunocytochemistry). The data set is classed as cell-based, human. The following applies: 400 µM, TNF-α-induced. As for the experimental part:
as §1
To study the effect of MPTAG on nuclear translocation of NF-κBp65 subunit in presence of TNF-α-stimulation, the HUVECs were seeded on gelatinized glass bottom 6-well plate at a cell density of 0.3×10^6 cells/ml. Following day, media was changed and MPTAG was added to the cells for 2 h. After the end of drug pretreatment, cells were induced with TNF-α for 45 mins. The cell monolayers were washed with PBS (phosphate buffered saline containing 1 mM CaCl2 and 1 mM MgCl2) and were fixed in a solution, containing 4% paraformaldehyde in 120 mM sodium phosphate buffer pH 7.2–7.4, for 20 mins at room temperature. The cells were then permeabilized using a high salt buffer, containing 0.45 M NaCl and 20 mM sodium phosphate buffer pH 7.2–7.4, 0.3% Triton X-100 and 0.2% gelatin, for 1 h at room temperature. Following this, the cells were incubated with anti-NF-κBp65 antibody for 2 h at room temperature. […] The fluorescent signals were then quantitated by selecting the nuclear and cytoplasmic regions in different fields using the NTS imaging software. […]

Data set [5] concerns NF-κB-dependent reporter gene transcription in HUVECs. Nature of the data set: NF-κB reporter gene assay (luciferase). In kind it is cell-based, human. To be noted: 400 µM, TNF-α 10 ng/ml. As for the experimental part: NF-κB dependent reporter gene transcription was measured as per the instructions of the luciferase assay kit (Promega, USA). Briefly, human endothelial cells ([…]) were plated in 96-well plates. HUVECs were transiently transfected by electroporation with a NF-κB-containing luciferase reporter gene plasmid for 24 h. After transfection, cells were washed and treated with 400 µM MPTAG for 24 h. For the TNF-α stimulation, cells were treated with 10 ng/ml of TNF-α for another 24 h. Supernatants after cell lysis were assayed for luciferase activity. The mean value for cells treated with no MPTAG and no TNF-α was set to 1, and -fold differences were determined by comparing values against this set value. Cells were co-transfected with a control vector expressing β-galactosidase under SV40 promoter to normalize transfection efficiency.

The next data set relates to p38 MAPK. Nature of the data set: p38 MAPK activation western blot. The data set is classed as cell-based, human. The following applies: MPTAG pretreatment.
The test system of data set [6] is IκBα in endothelial cells. Nature of the data set: IκBα phosphorylation and degradation western blot. The following applies: 400 µM, TNF-α 30 mins. In kind it is cell-based, human. As for the experimental part:
Nuclear and cytoplasmic extracts were fractionated on SDS-PAGE with equal amount of proteins per well and transferred onto PVDF membranes and those membranes were incubated with appropriate primary antibodies and treated with HRP conjugated secondary antibodies followed by detection with DAB-H2O2 system. β-tubulin, α-actin and Lamin B1 were used as loading controls. Antibodies against NF-κBp65, phosphoNF-κBp65, IκBα, phosphoIκBα, IKK-β, Akt, phosphoAkt (Ser473) and phosphoAkt (Thr308) were used.

The subject of data set [7] is TNF-α-induced E-selectin expression on human endothelial cells. Nature of the data set: Cell-ELISA for E-selectin expression. The following applies: added 2–4 h prior to TNF-α stimulation; data not shown. The data set is classed as cell-based. The protocol: The endothelial cells were incubated with or without MPG and its derivatives at various concentrations for 2 h followed by treatment with TNF-α (10 ng/ml) for 16 h for ICAM-1 and VCAM-1 expression and 4 h for E-selectin expression. A Cell-ELISA was used to assess the expression of ICAM-1, VCAM-1 and E-selectin on the surface of endothelial cells as described previously.

Data set [8] concerns VCAM-1 mRNA in endothelial cells. Nature of the data set: RT-PCR of VCAM-1 transcript. In kind it is cell-based, human. The following applies: 400 µM pretreatment, TNF-α 10 ng/ml 4 h. The protocol: In order to examine whether MPTAG reduced the mRNA transcript levels of cell adhesion molecules genes, the endothelial cells were pretreated with 400 µM MPTAG for 2 h before induction with TNF-α for 4 h followed by RT-PCR. RNA was isolated from MPTAG-treated cells according to a modified guanidinium thiocyanate procedure. The expression of the transcripts for ICAM-1, VCAM-1 and E-selectin was evaluated by RT-PCR [45]. β-Actin levels expressed under similar conditions were used as a loading control.

“Also recorded” adds a separate entry of the source.

As to `CC(=O)OC[C@H]1O[C@@H](Oc2c(C)occc2=O)[C@H](OC(C)=O)[C@@H](OC(C)=O)[C@@H]1OC(C)=O` [MPTAG, 2-methyl-pyran-4-one-3-O-β-D-2′,3′,4′,6′-tetra-O-acetyl glucopyranoside], the “TNF-α-induced association of Akt with IKK-β” value in data set [1] is on record as “significantly prevented”. For the same molecule, in [2] (H-89 then MPTAG, TNF-α), the “TNF-α-induced NF-κB activation (EMSA), H-89 treatment preceding MPTAG” value was “remained increased”. Moreover, in data set [2] (MPTAG 400 µM, dose-dependent), the “TNF-α-induced NF-κB DNA-binding activity / NF-κB activation (EMSA)” value is listed as “almost complete inhibition; also recorded: significantly inhibited”. In data set [2] (MPTAG then H-89, TNF-α), the “TNF-α-induced NF-κB activation (EMSA), MPTAG treatment preceding H-89” value is recorded as “inhibited”. Further, the “basal NF-κB activation” value in data set [2] (without TNF-α stimulation) was “no significant inhibitory effect”. Moreover, the “TNF-α-induced NF-κB activation (EMSA) in presence or absence of wortmannin” value in [2] (wortmannin before MPTAG, then TNF-α) was “inhibited similarly”. In addition, in data set [3], the water solubility result is listed as “completely water soluble”. In addition, the “translocation of NF-κBp65 subunit into the nucleus” value in [4] is reported as “prevented the translocation”. The NF-κB-regulated luciferase activity result in [5] is “significantly inhibited”. Also, the “TNF-α-induced p38 activation” value in the data set with p38 MAPK was “no effect”. Also, in [6], the “TNF-α-induced degradation of IκBα” value is “inhibited” and the “TNF-α-induced phosphorylation of IκBα” value is “inhibited”. The “inhibition of E-selectin” value in [7] is listed as “maximum inhibition”. Moreover, the “TNF-α-induced VCAM-1 mRNA level” value in data set [8] is “significantly reduced”.

The values above are taken from publication PMC3465347, “Regulation of NF-κB Activation through a Novel PI-3K-Independent and PKA/Akt-Dependent Pathway in Human Umbilical Vein Endothelial Cells” (PLoS ONE, 2012).
